{"source": "patent US20250179481A1", "about": "“COMPOSITIONS AND METHODS FOR TARGETING, EDITING, OR MODIFYING GENES” (Celyntra Therapeutics SA, priority 2021, published 2025)", "type_in_all_cases": "cell-based, human", "key": {"[1]": {"test_system": "PDCD1, TIM3, LAG3, TIG1T, CTLA4, PTPN6, PTPN11 and CD247", "assay": "gNA screen: INDEL frequency at eight loci in Jurkat T-cell leukemia cell line", "conditions": "gNAs adjacent to all YTTN PAM variants", "experimental": "Ribonucleoprotein complexes (RNPs) were generated by incubating respective guide nucleic acids (gNAs) with MAD7 in the molar ratio of 3:2 gNA: MAD7 for 15 minutes at room temperature immediately before transfection. For Jurkat experiments, the RNP complexes were generated by mixing the respective gNA ([…]), MAD7 ([…]), and nuclease-free water, unless otherwise stated.\nLonza 4D Nucleofector with Shuttle unit (V4SC-2960 Nucleocuvette Strips) was used for transfection, following the manufacturer's instructions. […]\nExtracted genomic DNA was quantified using the NanoDrop (ThermoFisher Scientific). […] The DNA was eluted from the beads with nuclease-free water and the size of the purified amplicons analyzed on a 2% agarose E-gel using the E-gel electrophoresis system (ThermoFisher Scientific). In the second PCR, unique pairs of Illumina-compatible indexes (Nextera XT Index Kit v2) were added to the amplicons using the KAPA HiFi HotStart Ready Mix (Roche). […] Sizes of the purified DNA fragments were validated on a 2% agarose gel using the E-gel electrophoresis system (ThermoFisher Scientific), quantified using Qubit dsDNA HS Assay Kit (Thermo Fisher) and then pooled in equimolar concentrations. […] The final library was sequenced on Illumina MiSeq System using the MiSeq Reagent Kit v.2 (300 cycles, […], paired-end reads). […]"}, "AAVS1 locus": {"test_system": "AAVS1 locus", "assay": "INDEL frequency at the AAVS1 locus in Jurkat cells", "conditions": "MAD7 RNP", "source_text": "The Jurkat T-cell leukemia cell line was used to evaluate the transgene insertion and expression efficiency using CRISPR-MAD7 RNP complexes. […] Specifically. […] Dark grey bars represent mean INDEL frequency using crAAVS1. Light grey bars represent mean modification frequency using crIDTneg (IDT). The HDR inserts comprised eight promoters (Table 4) differing in both size and promoter strength to drive GFP expression (FIG. 21). […] Specifically. […] HDR templates consisting of eight different promoters and flanked with symmetric homology arms of 500 base pairs in the amount of 0.5 μg μL^−1 were used. Size of promoters in base pairs: CMV, 1400; SCP, 970; CMVe-SCP, 1270; CMVmax, 1830; JET. 1100; CAG, 2600; PGK, 1410; EF-1a, 2090. Dark grey bars and circles present mean insertion frequency and cell viability using crAAVS1. Light grey bars represent mean insertion frequency and cell viability using crIDTneg (IDT)."}, "CD247": {"test_system": "CD247", "assay": "gNA validation: frameshift (ORF disruption) frequency, CD247", "conditions": "Jurkat, CRISPResso2 ORF analysis", "experimental": "Initial quality assessment of the obtained reads was performed with FastQC36. The sequencing data were aligned and analyzed with the CRISPResso2 software, using CRISPRessoBatch command with the parameters—cleavage_offset 1—quantification_window_size 10—quantification_window_center 1—expand_ambiguous_alignments for the INDEL frequency analysis. For the ORF disruption analysis, CRISPRessoBatch command with the parameters—cleavage_offset 1—coding_seq <EXON_SEQ>—quantification_window_size 0—quantification_window_center 1—expand_ambiguous_alignments was used. Modification rates from the CRISPResso2 software output were analyzed in Excel.\nHigh-efficiency gNAs identified in our initial analysis were validated by assaying INDEL frequency for the top three or five gNAs for each of the selected immunologically relevant genes (FIG. 15). […] Alternating grey and white zones on the plot represent groups of three to five high-efficiency gNAs per locus. […] Using the CRISPresso2 software, the degree of open reading frame (ORF) disruption for each of the validated gNAs was estimated (FIG. 15). In addition, for four high-efficiency gNAs targeting three different exons at the PDCD1 locus, surface expression of the PDCD1 protein was measured by flow cytometry 4, 7, and 11 days post-transfection (data not shown).\nAverage fraction of INDELs leading to frameshifts (dashed line) is approx. 66%. […]"}}}
{"substance": "MAD7: type V-A Cas nuclease, SEQ ID NO: 37", "values": [{"measurement": "editing by PAM motif", "setting": "[1]", "result": "editing with all eight combinations of YTTN PAM"}]}
{"substance": "crAAVS1: highly active gNA targeting the AAVS1 safe-harbor locus, spacer sequence in Table 5 (guide TTAGGATGGCCTTCTCCGACG; spacer only, further chemistry not given here)", "values": [{"measurement": "INDEL frequency at the AAVS1 locus", "setting": "AAVS1 locus", "result": "highly active"}]}
{"substance": "crCD247_4: validated high-efficiency gNA, CD247 (guide CTAGCAGAGAAGGAAGAACCC; spacer only, further chemistry not given here)", "values": [{"measurement": "frameshifts frequency (fraction of frameshift to INDEL)", "setting": "CD247", "result": 97, "unit": "%"}]}
